Reference: patent publication US20240002393A1, “SUBSTITUTED BENZO[f][l ,2,4JTRIAZOL0[4,3-a][l ,4J[…] GABA A GAMMA! POSITIVE ALLOSTERIC MODULATORS” (Hoffmann-La Roche Inc., priority 2020, published 2024)
Several values for one entry are separate records, joined by “and”; a condition that tells them apart may be missing. Equal values may be shown once.

How the values were obtained:
Experiment in all cases: Radioligand binding assay, [3H]RO7239181 competition, γ1-containing GABAA subtypes
[1] = molecular target: human GABAA α2β2γ1 receptor (Homo sapiens (Human), UniProt P47869+Q8N1C3); details: for Ki: HEK293F membranes, [3H]RO7239181 20-30 nM, mean of two determinations, read-out: Ki h-GABAA α2β2γ1; for γ2/γ1 Selectivity Ratio: Ki α1β3γ2 (nM)/Ki α2β2γ1 (nM); for LogSel: Log[Ki α1β3γ2 (nM)/Ki α2β2γ1 (nM)]
Experimental: (§1) The affinity of compounds at GABAA γ1 subunit-containing receptors was measured by competition for [^3H]RO7239181 (67.3 Ci/mmol; Roche) binding to membranes from HEK293F cells (ThermoFisher R79007) expressing human (transiently transfected) receptors of composition α5β2γ1, α2β2γ1, α1β2γ1.
(§2) Harvested pellets from HEK293F cells expressing the different GABAA receptor subtypes were resuspended in Mannitol Buffer pH 7.2-7.4 (Mannitol 0.29M, Triethylamine 10 mM, Acetic acid 10 mM, EDTA 1 mM plus protease inhibitors (20 tablets Complete, Roche Diagnostics Cat. No. 05 056 489 001 per liter)), washed two times and then resuspended at 1:10 to 1:15 dilution in the same buffer. Cell disruption was performed by stirring the suspension in a Parr vessel #4637 at 435 psi for 15 minutes, and then the suspensions were centrifuged at 1000×g for 15 minutes at 4° C. (Beckman Avanti J-HC; rotor JS)-4.2). The supernatant (S1) was transferred in a 21 Schott flask and the pellet (P1) was resuspended with Mannitol Buffer up to 175 ml. The resuspended pellet was transferred into a 250 ml Corning centrifugal beaker and centrifuged at 1500×g for 10 minutes at 4° C. (Beckman Avanti J-HC; rotor JS)-4.2). The supernatant (S1) was then transferred in the 21 Schott flask and the pellet was discarded. The supernatants (S1) were centrifuged in 500 ml Beckman polypropylene centrifugal beaker at 15,000×g for 30 minutes at 4° C. (Beckman Avanti J-20 XP; rotor JLA-10.500). The pellet (P2) was resuspended with Mannitol Buffer 1:1 and frozen at −80° C. The supernatant (S2) was centrifuged in 100 ml Beckman polypropylene centrifugal tubes at 48000×g for 50 minutes at […] (Beckman Avanti J-20 XP; rotor JA-18). The supernatant (S3) was discarded and the pellet (P3) was resuspended with 1:1 Mannitol Buffer. The P2 and P3 protein concentration was determined with the BIORAD Standard assay method with bovine serum albumin as standard and measured on the NANO-Drop 1000. The membrane suspension was aliquots (500 μl per tube) and stored at −80° C. until required.
(§3) Membrane homogenates were resuspended and polytronised (Polytron PT1200E Kinematica AG) in Potassium Phosphate 10 mM, KCl 100 mM binding buffer at pH 7.4 to a final assay concentration determined with a previous experiment.
(§4) Assays were incubated to equilibrium for 1 hour at 4° C. and then, membranes were filtered onto unifilter (96-well white microplate with bonded GF/C filters preincubated 20-50 minutes in 0.3% Polyethylenimine) with a Filtermate 196 harvester (Packard BioScience) and washed 4 times with cold Potassium Phosphate 10 mM pH 7.4, KCl 100 mM binding buffer. After drying, filter-retained radioactivity was detected by liquid scintillation counting. K, values were calculated using Excel-Fit (Microsoft) and are the means of two determinations.

[2] = molecular target: human GABAA α1β2γ1 receptor (Homo sapiens (Human), UniProt P14867+Q8N1C3); details: HEK293F membranes, [3H]RO7239181 20-30 nM, mean of two determinations
Experimental: as §1, §2, §3, §4

[3] = molecular target: human GABAA α5β2γ1 receptor (Homo sapiens (Human), UniProt P31644+Q8N1C3); details: HEK293F membranes, mean of two determinations
Experimental: as §1, with “α1β2γ1. For better protein expression of the α2 subunit-containing receptors, the 28 amino acid long signal peptide (Met1 to Ala28) of the human GABAA α2 subunit was substituted by the 31 amino acid long signal peptide (Met1 to Ser31) of human GABAA α5 subunit.” for “α1β2γ1.”
as §2, §3
as §4, with “Radioligand binding assays were carried out in a volume of 200 µL (96-well plates) which contained 100 μL of cell membranes, [^3H]RO7239181 at a concentration of 1.5 nM (α5β2γ1) or 20-30 nM (α1β2γ1, 2β2γ1) and the test compound in the range of [0.3-10000]×10^−9 M. Nonspecific binding was defined by 10×10^−6 (α5β2γ1) and 30×10^−6 M RO7235136 and typically represented less than 5% (α5β2γ1) and less than 20% (α1β2γ1, α2β2γ1) of the total binding. Assays” for “Assays”
Representative test results, obtained by the above described assay measuring binding affinity to HEK293 cells expressing human (h) receptors, are shown in the Table 1.

Structure (SMILES) | Ki [1] [nM] | γ2/γ1 Selectivity Ratio [1] | LogSel [1] | Ki [2] [nM] | Ki [3] [nM]
C[C@@H]1N=C(c2ccccc2F)c2c(ccc(Br)c2Cl)-n2cnnc21 [Example 30, (4S)-8-bromo-7-chloro-6-(2-fluorophenyl)-4-methyl-4H-[1,2,4]triazolo[4,3-a][1,4]benzodiazepine] | 43.6 | 13.3 | 1.13 and 1.1 | 65 | 2.6
OC1N=C(c2c(F)cccc2F)c2c(ccc(Br)c2Cl)-n2cnnc21 (stereo not shown) [Example 31, 8-bromo-7-chloro-6-(2,6-difluorophenyl)-4H-[1,2,4]triazolo[4,3-a][1,4]benzodiazepin-4-ol] | 41 | 17.3 | 1.24 | 39.7 | 2.8
C[C@@H]1N=C(c2ccccc2F)c2c(ccc(Br)c2Cl)-n2c(-c3cccnn3)nnc21 [Example 32, (4S)-8-bromo-7-chloro-6-(2-fluorophenyl)-4-methyl-1-pyridazin-3-yl-4H-[1,2,4]triazolo[4,3-a][1,4]benzodiazepine] | 10.5 | 98.2 | 1.99 | 33.3 | 1.3
OC1N=C(c2ccccc2F)c2c(ccc(Br)c2Cl)-n2c(-c3cccnn3)nnc21 (stereo not shown) [Example 35, 8-bromo-7-chloro-6-(2-fluorophenyl)-1-pyridazin-3-yl-4H-[1,2,4]triazolo[4,3-a][1,4]benzodiazepin-4-ol] | 78.6 | 35.7 | 1.55 | 640 | 8.4
C[C@@H]1N=C(c2c(F)cccc2F)c2c(ccc(Br)c2Cl)-n2cnnc21 [Example 51, (4S)-8-bromo-7-chloro-6-(2,6-difluorophenyl)-4-methyl-4H-[1,2,4]triazolo[4,3-a][1,4]benzodiazepine] | 4.9 | 79.5 and 80 | 1.9 | 9 | 0.8
C[C@@H]1N=C(c2c(F)cccc2F)c2c(ccc(Cl)c2Cl)-n2c(-c3ccncn3)nnc21 [Example 52, (4S)-7,8-dichloro-6-(2,6-difluorophenyl)-4-methyl-1-pyrimidin-4-yl-4H-[1,2,4]triazolo[4,3-a][1,4]benzodiazepine] | 5.7 | 112.4 | 2.05 | 10.2 | 1.1
C[C@@H]1N=C(c2c(F)cccc2F)c2c(ccc(Cl)c2Cl)-n2c(-c3cnn(C)c3)nnc21 [Example 53, (4S)-7,8-dichloro-6-(2,6-difluorophenyl)-4-methyl-1-(1-methylpyrazol-4-yl)-4H-[1,2,4]triazolo[4,3-a][1,4]benzodiazepine] | 3 | 82.0 | 1.91 | 14.4 | 1.1
C[C@@H]1N=C(c2c(F)cccc2F)c2c(ccc(Cl)c2Cl)-n2c(-c3cccnn3)nnc21 [Example 56, (4S)-7,8-dichloro-6-(2,6-difluorophenyl)-4-methyl-1-pyridazin-3-yl-4H-[1,2,4]triazolo[4,3-a][1,4]benzodiazepine] | 4.6 | 186.8 | 2.27 | 3.8 | 0.8
C[C@@H]1N=C(c2ncccc2F)c2c(ccc(Cl)c2Cl)-n2c(-c3cccnn3)nnc21 [Example 63, (4S)-7,8-dichloro-6-(3-fluoro-2-pyridyl)-4-methyl-1-pyridazin-3-yl-4H-[1,2,4]triazolo[4,3-a][1,4]benzodiazepine] | 39.4 | 103.5 | 2.02 | 333 | 5.6
C[C@@H]1N=C(c2c(F)cccc2F)c2c(ccc(Cl)c2Cl)-n2c1n[nH]c2=O [Example 64, (4S)-7,8-dichloro-6-(2,6-difluorophenyl)-4-methyl-2,4-dihydro-[1,2,4]triazolo[4,3-a][1,4]benzodiazepin-1-one] | 13.2 | 45.8 | 1.66 | 11.5 | 0.5
C[C@@H]1N=C(c2ncccc2F)c2c(ccc(Cl)c2Cl)-n2c(-c3ccncn3)nnc21 [Example 66, (4S)-7,8-dichloro-6-(3-fluoro-2-pyridyl)-4-methyl-1-pyrimidin-4-yl-4H-[1,2,4]triazolo[4,3-a][1,4]benzodiazepine] | 97.8 | 33.5 | 1.53 | 231 | 8
C[C@@H]1N=C(c2ncccc2F)c2c(ccc(Cl)c2Cl)-n2c(-c3cnn(C)c3)nnc21 [Example 67, (4S)-7,8-dichloro-6-(3-fluoro-2-pyridyl)-4-methyl-1-(1-methylpyrazol-4-yl)-4H-[1,2,4]triazolo[4,3-a][1,4]benzodiazepine] | 26.5 | 53.5 | 1.73 | 188 | 3.2
COC[C@@H]1N=C(c2c(F)cccc2F)c2c(ccc(C(F)(F)F)c2Cl)-n2c(C)nnc21 [Example 105, (4R)-7-chloro-6-(2,6-difluorophenyl)-4-(methoxymethyl)-1-methyl-8-(trifluoromethyl)-4H-[1,2,4]triazolo[4,3-a][1,4]benzodiazepine] | 99.3 | 73.9 | 1.87 | – | 20.1
Cc1nnc2n1-c1ccc(C(F)(F)F)c(Cl)c1C(c1c(F)cccc1F)=N[C@H]2CO [Example 106, [(4R)-7-chloro-6-(2,6-difluorophenyl)-1-methyl-8-(trifluoromethyl)-4H-[1,2,4]triazlo[4,3-a][1,4]benzodiazepin-4-yl]methanol] | 71.3 | 107.1 | 2.03 | – | 4.3
C[C@@H]1N=C(c2c(F)cccc2F)c2c(ccc(C(F)(F)F)c2Cl)-n2cnnc21 [Example 107, (4S)-7-chloro-6-(2,6-difluorophenyl)-4-methyl-8-(trifluoromethyl)-4H-[1,2,4]triazolo[4,3-a][1,4]benzodiazepine] | 68.3 | 51.8 | 1.71 | – | 3
CCc1ccc2c(c1Cl)C(c1c(F)cccc1F)=N[C@@H](C)c1nnc(C)n1-2 [Example 109, (4S)-7-chloro-6-(2,6-difluorophenyl)-8-ethyl-1,4-dimethyl-4H-[1,2,4]triazolo[4,3-a][1,4]benzodiazepine] | 65.8 | 11.5 | 1.06 | – | 3.7
